Paper PMC10657444, “Design and evaluation of tadpole-like conformational antimicrobial peptides” (Communications Biology, 2023)
≈ marks a conversion by molar mass, not a printed value. Where “and” joins values, the source holds several entries; their conditions need not be identical. Identical values can stand only once. Non-standard residues stand in square brackets, D forms with d. Residues, ends and D or L forms follow the SMILES beside them.

Key:
[1] = tested on: Gram-negative bacterial strains; format: cell-based; conditions: A. baumannii and Klebsiella pneumoniae
Source text: (§1) Bacteria were cultivated in Luria-Bertani (LB) broth.

[2] = tested on: S. aureus ATCC 25923; assay: Time-kill assay (growth curve, OD600); format: cell-based, Staphylococcus aureus; conditions: 16 × MIC
Procedure: Tube was inoculated (5 × 10^6 CFU/mL) with S. aureus ATCC 25923 and incubated at 37°C under shaking. Bacterial concentration was measured at each time point (0, 1, 2, 2.5, 3, 3.5, 4, 5, 6 and 7 h) by measuring absorbance at 600 nm with a microplate reader.

[3] = tested on: K. pneumoniae 3026; format: cell-based, Klebsiella pneumoniae
Source text: as §1

[4] = tested on: A. baumannii 1318; format: cell-based, Acinetobacter baumannii
Source text: as §1

[5] = tested on: A. baumannii 1337; format: cell-based, Acinetobacter baumannii
Source text: as §1

Row | SMILES | MICs against Gram-negative bacterial strains, such as A. baumannii and Klebsiella pneumoniae [1] [µM] | time to complete inhibition of bacterial growth [2] [h] | OD600, growth curve (SI Fig 2) ([2]; 0 h) | OD600, growth curve (SI Fig 2) ([2]; 1 h) | OD600, growth curve (SI Fig 2) ([2]; 2 h) | OD600, growth curve (SI Fig 2) ([2]; 2.5 h) | OD600, growth curve (SI Fig 2) ([2]; 3 h) | OD600, growth curve (SI Fig 2) ([2]; 3.5 h) | OD600, growth curve (SI Fig 2) ([2]; 4 h) | OD600, growth curve (SI Fig 2) ([2]; 5 h) | OD600, growth curve (SI Fig 2) ([2]; 6 h) | OD600, growth curve (SI Fig 2) ([2]; 7 h) | MIC Gram- K. p 3026 [3] [µM] | MIC Gram- A. b 1318 [4] [µM] | MIC Gram- A. b 1337 [5] [µM]
1 | CC[C@H](C)[C@H](NC(=O)[C@H](CCCNC(=N)N)NC(=O)[C@H](CCCNC(=N)N)NC(=O)[C@H](CC(C)C)NC(=O)[C@H](Cc1ccccc1)NC(=O)[C@@H](N)CCCNC(=N)N)C(=O)N[C@@H](Cc1ccccc1)C(=O)N[C@@H](Cc1ccccc1)C(=O)N[C@@H](Cc1ccccc1)C(=O)N[C@@H](Cc1ccccc1)C(N)=O [HT2] (H-RFLRRIFFFF-NH2) | 6.25 | 1 | 0.056 and 0.082 and 0.062 | 0.082 and 0.091 and 0.066 | 0.069 and 0.072 and 0.06 | 0.061 and 0.073 and 0.063 | 0.083 and 0.086 and 0.085 | 0.066 and 0.069 and 0.083 | 0.073 and 0.083 and 0.077 | 0.07 and 0.073 and 0.058 | 0.08 and 0.081 and 0.078 | 0.077 and 0.084 and 0.075 |  |  | 
2 | CC[C@@H](C)[C@@H](NC(=O)[C@@H](Cc1ccccc1)NC(=O)[C@@H](Cc1ccccc1)NC(=O)[C@@H](Cc1ccccc1)NC(=O)[C@H](N)Cc1ccccc1)C(=O)N[C@H](CCCNC(=N)N)C(=O)N[C@H](CCCNC(=N)N)C(=O)N[C@H](CC(C)C)C(=O)N[C@H](Cc1ccccc1)C(=O)N[C@H](CCCNC(=N)N)C(N)=O [RI-HT2] (H-[dF][dF][dF][dF][dI][dR][dR][dL][dF][dR]-NH2; N-terminus assumed) |  |  |  |  |  |  |  |  |  |  |  |  | 3.13 (≈ 4.53 µg/mL) | 3.13 (≈ 4.53 µg/mL) | 3.13 (≈ 4.53 µg/mL)
